Results taken from ChEMBL document CHEMBL1201862, “PubChem BioAssay data set” (2004).
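Growth conditions: 96-well plates. Treatment: test compound, 48 hours, 5 concentrations. Analysis: linear interpolation between bracketing concentrations; unreached endpoints set to highest concentration. GI50 marks 50% less growth.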 Active and inactive are the calls of the source. Cut-off read from the data, not from the text of the source: active = GI50 up to about 1.1 µM and inactive = higher.

Assays:
Assay in all cases: inhibition of tumour cell growth, NCI panel, 48 h
UACC-257 = test system: UACC-257
OVCAR-5 = test system: OVCAR-5
OVCAR-8 = test system: OVCAR-8
MOLT-4 = test system: MOLT-4
IGROV-1 = test system: IGROV-1
CCRF-CEM = test system: CCRF-CEM
XF498 = test system: XF498
RXF 631 = test system: RXF 631
DLD-1 = test system: DLD-1
K562 = test system: K562
EKVX = test system: EKVX
NCI-H226 = test system: NCI-H226
U-251 = test system: U-251
HT-29 = test system: HT-29
LOX IMVI = test system: LOX IMVI
NCI-H460 = test system: NCI-H460
SN12C = test system: SN12C
SK-MEL-28 = test system: SK-MEL-28
LXFL 529 = test system: LXFL 529
NCI-H23 = test system: NCI-H23
ACHN = test system: ACHN
M14 = test system: M14
DMS-114 = test system: DMS-114
786-0 = test system: 786-0
UO-31 = test system: UO-31
HCT-116 = test system: HCT-116
Malme-3M = test system: Malme-3M
OVCAR-3 = test system: OVCAR-3
SK-MEL-5 = test system: SK-MEL-5
DMS-273 = test system: DMS-273
SNB-78 = test system: SNB-78
A498 = test system: A498
A549 = test system: A549
SF-295 = test system: SF-295
HL-60 = test system: HL-60
SF-539 = test system: SF-539
RXF 393 = test system: RXF 393
HCT-15 = test system: HCT-15
SW-620 = test system: SW-620
UACC-62 = test system: UACC-62
SNB-75 = test system: SNB-75
M19-MEL = test system: M19-MEL
SF-268 = test system: SF-268
KM-20L2 = test system: KM-20L2
RPMI-8226 = test system: RPMI-8226
HOP-92 = test system: HOP-92
HCC 2998 = test system: HCC 2998
CAKI-1 = test system: CAKI-1
NCI-H522 = test system: NCI-H522
SNB-19 = test system: SNB-19
SR = test system: SR
SK-MEL-2 = test system: SK-MEL-2
TK-10 = test system: TK-10
OVCAR-4 = test system: OVCAR-4
MCF7 = test system: MCF7
HOP-18 = test system: HOP-18
SK-OV-3 = test system: SK-OV-3
HOP-62 = test system: HOP-62
KM12 = test system: KM12
COLO 205 = test system: COLO 205

O=c1/c(=C/c2ccccc2F)sc2nc3ccccc3n12
GI50 (UACC-257): > 100 µM (inactive) | GI50 (OVCAR-5): > 100 µM (inactive) | GI50 (OVCAR-8): > 100 µM (inactive) | GI50 (MOLT-4): > 100 µM (inactive) | GI50 (IGROV-1): > 100 µM (inactive) | GI50 (CCRF-CEM): > 100 µM (inactive) | GI50 (XF498): > 100 µM (inactive) | GI50 (RXF 631): > 100 µM (inactive) | GI50 (DLD-1): > 100 µM (inactive) | GI50 (K562): > 100 µM (inactive) | GI50 (EKVX): > 100 µM (inactive) | GI50 (NCI-H226): > 100 µM (inactive) | GI50 (U-251): 38.7 µM (inactive) | GI50 (HT-29): > 100 µM (inactive) | GI50 (LOX IMVI): 91 µM (inactive) | GI50 (NCI-H460): > 100 µM (inactive) | GI50 (SN12C): > 100 µM (inactive) | GI50 (SK-MEL-28): > 100 µM (inactive) | GI50 (LXFL 529): 88.3 µM (inactive) | GI50 (NCI-H23): > 100 µM (inactive) | GI50 (ACHN): > 100 µM (inactive) | GI50 (M14): > 100 µM (inactive) | GI50 (DMS-114): 67.3 µM (inactive) | GI50 (786-0): > 100 µM (inactive) | GI50 (UO-31): > 100 µM (inactive) | GI50 (HCT-116): > 100 µM (inactive) | GI50 (Malme-3M): > 100 µM (inactive) | GI50 (OVCAR-3): > 100 µM (inactive) | GI50 (SK-MEL-5): > 100 µM (inactive) | GI50 (DMS-273): > 100 µM (inactive) | GI50 (SNB-78): > 100 µM (inactive) | GI50 (A498): > 100 µM (inactive) | GI50 (A549): > 100 µM (inactive) | GI50 (SF-295): > 100 µM (inactive) | GI50 (HL-60): > 100 µM (inactive) | GI50 (SF-539): 74.3 µM (inactive) | GI50 (RXF 393): > 100 µM (inactive) | GI50 (HCT-15): > 100 µM | GI50 (SW-620): > 100 µM (inactive) | GI50 (UACC-62): > 100 µM (inactive) | GI50 (SNB-75): 57.4 µM (inactive) | GI50 (M19-MEL): > 100 µM (inactive) | GI50 (SF-268): 61.5 µM (inactive) | GI50 (KM-20L2): > 100 µM (inactive) | GI50 (RPMI-8226): > 100 µM (inactive) | GI50 (HOP-92): > 100 µM (inactive) | GI50 (HCC 2998): > 100 µM (inactive) | GI50 (CAKI-1): > 100 µM (inactive) | GI50 (NCI-H522): 92.7 µM (inactive) | GI50 (SNB-19): > 100 µM (inactive) | GI50 (SR): 38.3 µM (inactive) | GI50 (SK-MEL-2): > 100 µM (inactive) | GI50 (TK-10): > 100 µM (inactive) | GI50 (OVCAR-4): > 100 µM (inactive)

COc1cccc2c1C(=O)c1c(O)c3c(c(O)c1C2=O)C[C@@](O)(C(C)O)C[C@@H]3OC1CC(N)C(O)C(C)O1 (stereo partly drawn)
GI50 (UACC-257): 1.42 µM (inactive) | GI50 (OVCAR-5): 3.3 µM (inactive) | GI50 (OVCAR-8): 1.14 µM (inactive) | GI50 (MOLT-4): 0.105 µM (active) | GI50 (IGROV-1): 2.2 µM (inactive) | GI50 (CCRF-CEM): 0.148 µM (active) | GI50 (XF498): 0.614 µM (active) | GI50 (MCF7): 0.738 µM (active) | GI50 (RXF 631): 2 µM (inactive) | GI50 (DLD-1): 2.99 µM (inactive) | GI50 (K562): 1.12 µM (active) | GI50 (EKVX): 1.18 µM (inactive) | GI50 (NCI-H226): 0.607 µM (active) | GI50 (U-251): 0.885 µM (active) | GI50 (HT-29): 2.21 µM (inactive) | GI50 (LOX IMVI): 0.524 µM (active) | GI50 (NCI-H460): 0.329 µM (active) | GI50 (SN12C): 0.993 µM (active) | GI50 (SK-MEL-28): 1.42 µM (inactive) | GI50 (LXFL 529): 1.02 µM (active) | GI50 (HOP-18): 0.00497 µM (active) | GI50 (NCI-H23): 0.553 µM (active) | GI50 (ACHN): 1.51 µM (inactive) | GI50 (M14): 3.02 µM (inactive) | GI50 (DMS-114): 0.163 µM (active) | GI50 (786-0): 0.644 µM (active) | GI50 (UO-31): 38.5 µM (inactive) | GI50 (HCT-116): 0.805 µM (active) | GI50 (Malme-3M): 0.491 µM (active) | GI50 (OVCAR-3): 2.4 µM (inactive) | GI50 (SK-MEL-5): 0.834 µM (active) | GI50 (DMS-273): 0.569 µM (active) | GI50 (SNB-78): 1.88 µM (inactive) | GI50 (SK-OV-3): 2.72 µM (inactive) | GI50 (A498): 2.18 µM (inactive) | GI50 (A549): 0.946 µM (active) | GI50 (SF-295): 1.26 µM (inactive) | GI50 (HL-60): 0.171 µM (active) | GI50 (SF-539): 0.869 µM (active) | GI50 (RXF 393): 1.47 µM (inactive) | GI50 (HCT-15): 8.28 µM | GI50 (SW-620): 1.05 µM (active) | GI50 (UACC-62): 1.34 µM (inactive) | GI50 (HOP-62): 0.861 µM (active) | GI50 (KM12): 2.24 µM (inactive) | GI50 (SNB-75): 0.00982 µM (active) | GI50 (M19-MEL): 1.16 µM (inactive) | GI50 (SF-268): 1.05 µM (active) | GI50 (KM-20L2): 3.24 µM (inactive) | GI50 (HOP-92): 0.502 µM (active) | GI50 (HCC 2998): 1.68 µM (inactive) | GI50 (CAKI-1): 0.408 µM (active) | GI50 (NCI-H522): 0.57 µM (active) | GI50 (SNB-19): 0.883 µM (active) | GI50 (SR): 0.16 µM (active) | GI50 (COLO 205): 1.41 µM (inactive) | GI50 (SK-MEL-2): 1.41 µM (inactive) | GI50 (TK-10): 2.5 µM (inactive) | GI50 (OVCAR-4): 4.99 µM (inactive)
